Measurements taken from patent US8236523B2, “Camp reporters and high throughput assays” (The Johns Hopkins University, priority 2004, dated 2012).

How the values were obtained:
Assay type in all cases: cell-based
[1] = system: cAMP; experiment: Dual-emission ratio (FRET) imaging of Epac-based cAMP reporters (ICUE1 and targeted fusions) in HEK-293 cells; conditions: HEK293 cells expressing ICUE1, 10 μM ISO, 50 μM FSK
Method: Cell Culture. […] Cells were then transfected with FuGENE-6 transfection reagent (Roche) or calcium phosphate and allowed to grow for 12-24 hours before imaging.
Imaging. Cells were washed twice with Hanks' balanced salt solution buffer after 12- to 24-h incubation at 37° C. culture medium. Cells were maintained in buffer in the dark at room temperature with addition of isoproterenol (Aldrich), forskolin (Calbiochem), Prostaglandin E1 (PGE1) (Sigma), and 8-(4-chloro-phenylthio)-2′-O-methyl adenosine 3′,5′-monophosphate (8-pCPT-2′-O-Me-cAMP) (Axxora Biolog) as indicated. Cells were also treated with P-(4,5-dimethoxy-2-nitrobenzyl) adenosine 3′,5′-monophosphate (DMNB-cAMP) (Molecular Probe).
Cells were imaged on a Zeiss Axiovert 200M microscope with a cooled charge-coupled device camera MicroMAX BFT512 (Roper Scientific) controlled by METAFLUOR 6.2 software (Universal Imaging). Dual-emission ratio imaging used a 420DF20 excitation filter, a 450DRLP dichroic mirror and two emission filters (475DF40 for ECFP, 535DF25 for citrine) alternated by a filter changer Lambda 10-2 (Sutter Instruments). Exposure time was 100-500 ms and images were taken every 8-30 s. Fluorescent images were background-corrected by subtracting autofluorescence intensities of untransfected cells (or background with no cells) from the emission intensities of fluorescent cells expressing reporters. The ratios of cyan to yellow emissions were then calculated at different time points and normalized by dividing all ratios by the emission ratio just prior to stimulation therefore setting the basal emission ratio to 1.

[2] = system: cAMP; experiment: 96-well live cell plate reading of HEK293 cells expressing ICUE3; conditions: 1 μM ISO, 50 μM FSK
Method: Plate reading used a 420DF20 excitation filter and two emission filters (470DF40 for cyan and 535DF25 for yellow). A baseline was established in three cycles, each consisting of a full plate reading of yellow intensity, followed by a reading of cyan intensity. Cells were then treated with isoproterenol (ISO; Aldrich), forskolin (Calbiochem), H89, propranolol, and 3-isobutyl-1-methylxanthine (IBMX) as indicated. Readings were taken in six or twenty additional cycles. Each cycle lasted 60 to 145 sec. Baseline FRET ratios were calculated as the average ratio of yellow/cyan for each well before the addition of drug. FRET change was calculated as the percent increase of FRET ratio over baseline for each well during a given cycle. The FRET changes of all wells having undergone the same drug treatment were then averaged within each cycle, and that cycle was correlated with time.
Live cell plate reading. HEK293 cells were transfected with cDNA encoding ICUE reporters using calcium phosphate at 40% confluency and allowed to grow for 40 hours. Cells were then trypsinized and plated in a Costar 3603 96-well assay plate (Coming) at a density of 150,000 cells per well. After incubation for another 24 hours, cells were washed once with HBSS and left in 150 μl HBSS at 20-25° C. Fluorescence reading was taken on a FLUOstar OPTIMA fluorescence microplate reader (BMG Labtechnologies Inc.) using a 420DF20 excitation filter and two emission filters (470DF40 for cyan and […] for yellow). A baseline was established in three cycles, each consisting of a full plate reading of yellow intensity, followed by a reading of cyan intensity. Each cycle lasted between 64 and 145 seconds. Readings were taken in additional cycles. FRET change was calculated as the percent increase of emission ratios (cyan-to-yellow) over baseline for each well during a given cycle. To assess the efficacy of the assay, several statistical parameters were calculated, including Z factor, coefficient of variation, and signal-to-noise ratio (Zhang et al., J. Biomol. Screen. 4, 67-73, 1999).

[3] = system: cAMP; experiment: High throughput 96-well plate assay using ICUE2 stable HEK293 cells
Method: HEK293 cells which stably express ICUE2 (“ICUE2 stable HEK293 cells”) were grown to confluency in 10 cm dishes in DMEM, 10% FBS, 1% penicillin/streptomycin, and 250 μg/ml G418. HEK-293 cells were transfected with cDNA encoding ICUE2 using calcium phosphate at 40% confluency and allowed to grow for 40 hours. Cells were removed from the dish using 0.05% trypsin, spun down, and replaced with fresh media. ICUE2 stable HEK293 cells were counted on a hemocytometer using trypan blue stain. One hundred fifty thousand (150,000) cells were plated per well on a 96-well clear bottom assay plate in a total of 0.2 ml of media per […] and allowed to double once. Media was removed, cells were washed with Hanks buffered salt solution (HBSS) and then covered with 0.05 ml of HBSS per well. In a separate sterile plate, appropriate drugs were added to each well containing HBSS for a total volume of 0.05 ml. […] A baseline was established in three cycles, each consisting of a full plate reading of yellow intensity, followed by a reading of cyan intensity. Cells were then treated with isoproterenol (ISO; […] Readings were taken in six or twenty additional cycles. […] Baseline FRET ratios were calculated as the average ratio of yellow/cyan for each well before the addition of drug. FRET change was calculated as the percent increase of FRET ratio over baseline for each well during a given cycle. The FRET changes of all wells having undergone the same drug treatment were then averaged within each cycle, and that cycle was correlated with time.

CC(C)NCC(O)c1ccc(O)c(O)c1 (stereo not shown) [isoproterenol]
time to plateau / maximal change in emission ratio ([1]; 10 μM PGE1): 1.5 to 3 min
increase in the ratio of cyan to yellow emissions (FRET response) ([1]; 10 μM PGE1, 300 μM 8-pCPT-2′-O-Me-cAMP, average ± S.E.M): 16.8%±1.0
character of ICUE3 response (in words) [2]: transient responses
maximal response / emission ratio change ([2]; HEK293 cells expressing ICUE3, n=7): 8.10%±1.4%
character of ICUE2 response (in words) ([3]; 1 μM ISO, 100 μM IBMX, 50 μM FSK): transient responses
Average percent FRET response ± standard deviation, cycle 1 ([3]; cycle 1 (1 cycle = 60 seconds), 1 μM Iso, 50 μM Fsk, 10 μM H89, 100 μM IBMX): 8.22% ± 5.97%
Average percent FRET response ± standard deviation, cycle 2 ([3]; cycle 2 (1 cycle = 60 seconds), 1 μM Iso, 50 μM Fsk, 10 μM H89, 100 μM IBMX): 20.2% ± 1.69%
Average percent FRET response ± standard deviation, cycle 3 ([3]; cycle 3 (1 cycle = 60 seconds), 1 μM Iso, 50 μM Fsk, 10 μM H89, 100 μM IBMX): 21.59% ± 2.65%
Average percent FRET response ± standard deviation, cycle 4 ([3]; cycle 4 (1 cycle = 60 seconds), 1 μM Iso, 50 μM Fsk, 10 μM H89, 100 μM IBMX): 22.44% ± 2.42%
Average percent FRET response ± standard deviation, cycle 5 ([3]; cycle 5 (1 cycle = 60 seconds), 1 μM Iso, 50 μM Fsk, 10 μM H89, 100 μM IBMX): 21.47% ± 2.92%
Average percent FRET response ± standard deviation, cycle 6 ([3]; cycle 6 (1 cycle = 60 seconds), 1 μM Iso, 50 μM Fsk, 10 μM H89, 100 μM IBMX): 19.64% ± 1.73
Average percent FRET response ± standard deviation, cycle 7 ([3]; cycle 7 (1 cycle = 60 seconds), 1 μM Iso, 50 μM Fsk, 10 μM H89, 100 μM IBMX): 17.36% ± 1.28%
Average percent FRET response ± standard deviation, cycle 8 ([3]; cycle 8 (1 cycle = 60 seconds), 1 μM Iso, 50 μM Fsk, 10 μM H89, 100 μM IBMX): 15.93% ± 2.0%
Average percent FRET response ± standard deviation, cycle 9 ([3]; cycle 9 (1 cycle = 60 seconds), 1 μM Iso, 50 μM Fsk, 10 μM H89, 100 μM IBMX): 14.45% ± 3.55%
Average percent FRET response ± standard deviation, cycle 10 ([3]; cycle 10 (1 cycle = 60 seconds), 1 μM Iso, 50 μM Fsk, 10 μM H89, 100 μM IBMX): 11.07% ± 2.19%
Average percent FRET response ± standard deviation, cycle 11 ([3]; cycle 11 (1 cycle = 60 seconds), 1 μM Iso, 50 μM Fsk, 10 μM H89, 100 μM IBMX): 6.94% ± 1.93
Average percent FRET response ± standard deviation, cycle 12 ([3]; cycle 12 (1 cycle = 60 seconds), 1 μM Iso, 50 μM Fsk, 10 μM H89, 100 μM IBMX): 2.26% ± 5.45%
Average percent FRET response ± standard deviation, cycle 13 ([3]; cycle 13 (1 cycle = 60 seconds), 1 μM Iso, 50 μM Fsk, 10 μM H89, 100 μM IBMX): 2.47% ± 6.06%
Average percent FRET response ± standard deviation, cycle 14 ([3]; cycle 14 (1 cycle = 60 seconds), 1 μM Iso, 50 μM Fsk, 10 μM H89, 100 μM IBMX): 2.27% ± 3.37%
Average percent FRET response ± standard deviation, cycle 15 ([3]; cycle 15 (1 cycle = 60 seconds), 1 μM Iso, 50 μM Fsk, 10 μM H89, 100 μM IBMX): 1.80% ± 5.84%
Average percent FRET response ± standard deviation, cycle 16 ([3]; cycle 16 (1 cycle = 60 seconds), 1 μM Iso, 50 μM Fsk, 10 μM H89, 100 μM IBMX): 1.05% ± 5.87%
Average percent FRET response ± standard deviation, cycle 17 ([3]; cycle 17 (1 cycle = 60 seconds), 1 μM Iso, 50 μM Fsk, 10 μM H89, 100 μM IBMX): 1.29% ± 2.72%
Average percent FRET response ± standard deviation, cycle 18 ([3]; cycle 18 (1 cycle = 60 seconds), 1 μM Iso, 50 μM Fsk, 10 μM H89, 100 μM IBMX): 1.68% ± 6.12%
Average percent FRET response ± standard deviation, cycle 19 ([3]; cycle 19 (1 cycle = 60 seconds), 1 μM Iso, 50 μM Fsk, 10 μM H89, 100 μM IBMX): 2.52% ± 3.54%
Average percent FRET response ± standard deviation, cycle 20 ([3]; cycle 20 (1 cycle = 60 seconds), 1 μM Iso, 50 μM Fsk, 10 μM H89, 100 μM IBMX): 0.93% ± 4.45%
